Assay in all cases: growth of human tumour cells (NCI), 48 h
Assay [1] concerns SK-MEL-28 melanoma.
Assay [2] relates to U251 CNS.
The subject of assay [3] is ACHN renal.
Assay [4] deals with OVCAR-3 ovarian.
In assay [5] the test system is T-47D breast.
The test system of assay [6] is SR leukemia.
Assay [7] deals with M14 melanoma.
The test system of assay [8] is SW-620 colon.
Assay [9] deals with CAKI-1 renal.
Assay [10] relates to MDA-MB-231 breast.

Among the data in PubChem BioAssay (NCI) are TGI and GI50 values, retold here.

Several values for one entry are separate records, joined by “and”; a condition that tells them apart may be missing. Equal values may be shown once.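 96-well plates; 48 h exposure; 5 concentrations. Endpoints by linear interpolation between flanking doses. Not reached: highest tested concentration assigned. Abbreviation: GI50, concentration required for 50% inhibition of growth. The concentration for full growth arrest is given as TGI.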 Where a SMILES comes first, the peptide text is derived from it. The star is where a group is joined. Trt = c1ccc(C(c2ccccc2)(c2ccccc2)*)cc1; Cbz = O=C(OCc1ccccc1)*

Take `COC(=O)/C(=N\Nc1nnc(C)n1N)C(C#N)c1ccccc1` (stereo not given): the TGI in assay [1] was greater than 100 µM; in [2], greater than 100 µM; in assay [3], greater than 71.1 µM; in [4], greater than 100 µM; in [5], greater than 100 µM; in assay [6] it was greater than 100 µM. For the same compound, the TGI in [7], in assay [8], in assay [9] and in [10] was greater than 100 µM in each case.

With `NC(=O)c1ccc(N(C(N)=O)c2c(F)cccc2F)nc1-c1ccc(F)cc1F`, the GI50 in assay [1], in [2], in assay [3], in assay [4], in assay [5] and in assay [6] was greater than 100 µM each time. In addition, the GI50 in assay [7], in assay [8], in assay [9] and in assay [10] was greater than 100 µM throughout. For the same compound, the TGI in [1], in assay [2], in assay [3], in assay [4], in [5] and in [6] was greater than 100 µM in each case. Further, the TGI in assay [7], in [8], in assay [9] and in assay [10] was greater than 100 µM each time.

For the compound `Cc1c(Cl)c(C)c(Cc2c(C)c(Cl)c(C)c(Cl)c2O)c(O)c1Cl`, the GI50 in assay [1] is 3.14 µM; in [2], 3.1 µM; in [3], 2.32 µM; in assay [4], 3.28 µM; in assay [5], 2.11 µM; in assay [6], 3.4 µM. Further, the GI50 is 3.53 µM in [7], 3.14 µM in assay [8], 2.3 µM in assay [9] and 2.38 µM in [10]. The TGI stood at 14 µM in assay [1]; 10.9 µM in assay [2]; 6.88 µM in assay [3]; 11.2 µM in assay [4]; 8.76 µM in [5]; 12.4 µM in assay [6]. In addition, the TGI in assay [7] turned out to be 14.4 µM; in assay [8], 13.5 µM; in assay [9], 9.77 µM; in [10], 7.2 µM.

On to `COc1cc(-c2cc(=O)c3c(O)c(OC)c(OC)c(OC)c3o2)cc(OC)c1OC`, for which the TGI in [1] was greater than 100 µM; in assay [2], greater than 22.2 µM; in assay [3] it was greater than 100 µM; in assay [4] it was greater than 100 µM; in [5], greater than 74.3 µM; in assay [6], greater than 100 µM. In addition, the TGI in [7] is greater than 100 µM; in assay [10] it was 38.5 µM.

Take `CCCCCCCCCCCCCCCCOCC(O)CO` (stereo not given): the TGI in assay [1] came to 33.3 µM; in [2] it was 36.2 µM; in assay [3], 33.6 µM; in assay [4] it was 46.7 µM; in assay [5] it was 46.2 µM; in assay [6], 28.5 µM. For the same compound, the TGI in assay [7] is 58 µM; in assay [8], 41.2 µM; in [9], 35 µM; in [10] it was 35.6 µM.

For the compound `COC(=O)C(CSC(c1ccccc1)(c1ccccc1)c1ccccc1)NC(=O)C(CC(N)=O)NC(=O)OCc1ccccc1` (stereo not drawn) (Cbz-Asn-Cys(Trt)-OMe; configuration not given here), the GI50 was 3.42 µM in assay [1]; 5.87 µM in [2]; 5.11 µM in assay [3]; 1.78 µM in [4]; 2.13 µM in assay [5]; 1.68 µM in [7]. Besides, the results for the GI50 in assay [8], in [9] and in [10] were 7.34 µM, 3.51 µM and 2.93 µM, respectively. For the same compound, the TGI in [1] was determined as 15.4 µM; in assay [2], 18.5 µM; in [3], 22.4 µM; in [4], 4.67 µM; in [5], 8.33 µM; in assay [7], 3.69 µM. Further, the TGI in [8] was 23.7 µM; in [9] it was 14.3 µM; in [10] it was 10.9 µM.

In the case of `COc1cc2c(cc1OCCCOc1ccc(-c3nc4ccc(N5CCN(C)CC5)cc4[nH]3)cc1)N=C[C@@H]1CCCN1C2=O`, the GI50 in assay [1], in assay [2], in assay [4], in assay [5], in assay [6] and in assay [7] was less than 0.01 µM each time. For the same compound, the GI50 in assay [8], in assay [9] and in assay [10] was less than 0.01 µM throughout. The TGI in [1] was 54.5 µM; in assay [2], 5.07 µM; in assay [4], less than 0.01 µM; in assay [5], 15 µM; in assay [6], less than 0.01 µM; in [7], less than 0.01 µM. Besides, the TGI in [8] is 15.2 µM; in assay [9] it was less than 0.01 µM; in [10] it was less than 0.01 µM.

Consider `Nc1nc(N)c2c(n1)NC(c1sc(Cl)nc1Cl)CC(c1ccc3c(c1)OCO3)=N2` (stereo not given), for which the GI50 in assay [1] was 7.63 µM; in [3] it was 5.86 µM; in assay [4], 3.94 µM; in assay [5] it was 5.36 µM; in assay [6], 1.9 µM; in assay [7] it was 2.01 µM. Further, the values for the GI50 in assay [8], in assay [9] and in assay [10] were 2.98 µM, 3.17 µM and 5.81 µM, respectively. In addition, the TGI in [1] stood at 29.2 µM; in assay [3], 26.4 µM; in assay [4], 17.4 µM; in assay [5], 64.1 µM; in [6], 16.6 µM; in assay [7], 13.7 µM. Further, the TGI in assay [8] is 21.5 µM; in assay [9], greater than 100 µM; in assay [10], 22.3 µM.

Consider `Cn1cc(-c2nc(N[C@@H]3CCCC[C@@H]3N)c(F)c3c2C(=O)NC3)cn1`, for which the GI50 in [1] is 8.96 µM and 10.8 µM; in [2], 15.3 µM; in assay [3], 3.08 µM and 4.65 µM; in [4], 15.1 µM and 15.6 µM; in assay [5] it was 24.8 µM and 33.7 µM; in assay [6] it was 2.26 µM and 2.92 µM. Also, the GI50 is 1.56 µM and 1.67 µM in [7]; 4.26 µM and 5 µM in assay [8]; 5.04 µM and 6.15 µM in assay [10]. Besides, the TGI in assay [1] was greater than 100 µM; in [2] it was 33.9 µM and 36.3 µM; in assay [3] it was greater than 100 µM; in assay [4], 42.1 µM and 38.7 µM; in [5] it was 77.3 µM and > 96.6 µM; in assay [6] it was 31.9 µM and 36 µM. Moreover, the TGI is greater than 96.1 µM in [7]; greater than 100 µM in assay [8]; 26.2 µM and 31.9 µM in [10].
